Entries after “also recorded” stand apart in the source; their conditions may differ.
Assays:
[1] = test system: hippocampal CA3-CAl areas; test: Long-term potentiation (LTP) testing in vivo, Example 2; set-up: species or system Sprague-Dawley rat; settings: 11 months old, FIG. 4; for persistence of LTP induction: after the second day, followed for up to 4 days; for fEPSP values / LTP response evoked after the HFS train, in words: compared with Control group (and NeuAc group)
Procedure: In order to establish the role of sialylated oligosaccharides in cognition, rat pups were supplemented with 6'-sialyllactose (6'-SL) from postnatal day 3 (PND3) and their learning and memory abilities were analyzed later in life. Rat performance in a classical spatial cognitive task (Y-maze), Novel object Recognition, protocol of spatial learning in the novel Intellicage® system, and Morris water maze were carried out once the animals reached 12 and 14 months of age. LTP response in hippocampus was also evaluated in vivo once the animals reached 11 months of age. The Y-maze, Object Recognition and the IntelliCage® allow the determination of spatial orientation and memory capabilities of experimental animals. The same female rats performed all the tests.
The pups from the second cohort were divided into three groups and given the following designations: the 6'-SL supplemented group, the NeuAc supplemented group and the control group. Initially, each group comprised 20 male pups. Due to premature deaths there were a total of 14 pups in the 6'-SL supplemented group at the end of the lactation. The 6'-SL supplemented group received 6'-SL supplementation (8 doses/day) in order to reach the same sialic acid levels as normally reared pups. The amount of 6'-SL given to the 6'-SL supplemented group was selected to follow the change in concentration of sialic acid in rat milk, ranging from 1.5 g/Kg body weight on day 3 to 0.5 g/Kg body weight at weaning. The maximum amount of sialic acid given to a pup was a maximum of 2 mg/Kg on day 8.
There were a total of 16 male pups in the NeuAc supplemented group at the end of lactation. The NeuAc supplemented group received NeuAc supplementation in order to reach the same sialic acid levels as normally reared pups. The amount of NeuAc given to the NeuAc supplemented group was selected to follow the change in concentration of sialic acid in rat milk, ranging from 1.5 g/Kg body weight on day 3 to 0.5 g/Kg body weight at weaning. The maximum amount of sialic acid given to any pup was 2 mg/Kg on day 8,
Long-term potentiation (LTP) measurements were performed in each of the three groups, i.e., the 6'-SL Supplemented Group, the NeuAc -Supplemented Group and the Control Group. The testing was done while the animals were alive and 11 months old, which is about age 40 in human years. Experiments were done in order to determine the functionality of hippocampus in vivo. […]
To evoke LTP, the following high frequency stimulation (HFS) protocol was used: each animal was subjected to five 200 Hz, 100 ms trains of pulses at a rate of l/s. […] After the HFS protocol, fEPSPs were recorded again for 30 minutes. […]
The HFS train is indicated by the downward arrow. […] The baseline was recorded at 15, 10, and 5 minutes before HFS.

rats [2] = test: Novel Object Recognition testing, Example 2; type: in vivo, Sprague-Dawley rat; settings: 13 months old, retention test one day after acquisition phase, FIG. 5
Procedure: Perirhinal cortex and hippocampus are involved in the novel object recognition task. Novel Object Recognition Testing was performed when the rats were 13 months old, which corresponds to 45-50 years old for humans. Eight animals were tested.
During a habituation phase of the test, the rats were allowed to explore an "arena" for 20 minutes per day for 3 consecutive days. The arena was a black, open plastic chamber. Next, an acquisition phase took place wherein the animals interfaced with two different objects. These object are defined as "familiar." The rats were allowed to the arena while the familiar objects were present for 10 minutes. One day after the acquisition phase, a retention test was performed on the rats, wherein one of the familiar objects was replaced by a new object. The new object is defined as "novel." The rats were allowed to explore the arena for 5 minutes during the retention test. In theory, animals that remember familiar objects will spend more time exploring the novel object than the familiar one.

rats [3] = test: Y-maze testing, Example 2 (Acquisition Trial and Retention Trial); type: in vivo, Sprague-Dawley rat; settings: 14 months old; for latency to blocked arm: Retention Trial 4 hours after Acquisition Trial, compared with Control group, FIG. 6; for percentage of animals visiting the previously blocked arm first: Retention Trial, compared with control animals, FIG. 7
Procedure: A Y-maze test was performed when the rats were 14 months old, which corresponds to 50-55 years old in humans. Eight rats in each group were tested. The Y-maze testing was performed in two phases: an Acquisition Trial and a Retention Trial. Rats in each group were evaluated in the Y-maze.
(§1) During the Acquisition Trial, one of the three arms of the Y-maze was blocked, and animals were allowed to explore the other two arms for 15 minutes. The Retention Trial took place 4 hours after the Acquisition Trial. During the Retention Trial, all three arms were open and animals were allowed to explore for 5 minutes. The amount of time each animal spent at the start of the Y-maze and each arm was evaluated.

rats [4] = test: Intellicage testing, Example 2; type: in vivo, Sprague-Dawley rat; settings: 14-15 months old, compared with Control group; for visits to the correct corner versus the incorrect corner (performance): FIG. 8
Procedure: IntelliCage® (NewBehavior AG) is a computer-based, fully automated testing apparatus used to analyze spontaneous and learned behavior. Eight rats in each group were tested. The rats were 14-15 months old, which corresponds to 55-60 years old for humans, when these tests were performed. Animals remain in the cage during several days and behavior is recorded during the entire testing period. Different paradigms can be tested by restricting water access to specific places and time periods. Each animal is assigned a corner where it can access water. Access to the water is only allowed during discrete time periods. Thus, each animal must learn when access to water bottles is allowed and which corner, out of four, has been assigned to it. Access to the corner is controlled by a door that opens only when the assigned rat enters its nose in a hole. […] Access to non-assigned corners remain blocked except during two 90 min periods during the night.

rats [5] = test: Y-maze testing, Example 1 (Retention Trial and Memory Trial); type: in vivo, Sprague-Dawley rat; settings: PND90
Procedure: In order to establish the role of free sialic acid in cognition, rat pups were supplemented with free N-Acetylneuraminic acid (Neu5Ac) from postnatal day 3 (PND3) and their learning and memory abilities were analyzed later in life. Rat performance in a classical spatial cognitive task (Y-maze) was evaluated once the animals […]. LTP response in hippocampus was also evaluated postnatal day 110 (PND110).
The pups from the second cohort were divided into two groups and given the following designations: the SIA-supplemented group and the Control group. Pups in the SIA - supplemented group were given milk containing low sialic acid, and received a supplementation of free sialic acid since the same day of transfer to the foster mothers until weaning. There were a total of 12 male pups in the SIA -supplemented group. The SIA -supplemented group received free sialic acid supplementation (8 doses/day) in order to reach the same free sialic acid levels as normally reared pups. The amount of free sialic acid given to the SIA-supplemented group was selected to follow the change in concentration of sialic acid in rat milk, ranging from 1.5 g/Kg body weight on day 3 to 0.5 g/Kg body weight at weaning. The amount of sialic acid given to any pup was a maximum of 1.8 mg/Kg body weight on day 8.
The Y-maze is a widely accepted method of testing spatial orientation and memory capabilities in rats. Ten rats in each group were evaluated in the Y-maze. At postnatal day 90 (PND90) for each group, the rats were subjected to a training trial (hereinafter, the "Training Trial"). The approximate equivalent in human years to 90 days of rat life is 10 to 20 years of age. At 5 minutes post training, rats in each group were tested again to test their retention (hereinafter, the "Retention Trial"). At 48 hours post training, rats in each group were tested again to test their memory, (hereinafter, the "Memory Trial").
as §1, with “Training” for “Acquisition”, “minutes.” for “minutes. The Retention Trial took place 4 hours after the Acquisition Trial.”, “Retention Trial and the Memory” for “Retention”
During the Memory Trial, performed 48 hours after the Training Trial, a long time spent at the start of the Y-maze denotes anxiety and neophobia. Conversely, the longer time an animal spent at the novel arm indicates an interest in novelty and apparent ability to recognize which arms they had visited previously.

[6] = test system: hippocampal CA3-CAl areas; test: Long-term potentiation (LTP) testing in vivo, Example 1; set-up: species or system Sprague-Dawley rat; settings: PND110; for LTP response evoked by the stimulus, in words: compared with Control Group and Reference Group
Procedure: Long-term potentiation (LTP) measurements were performed in each of the three groups, i.e., the Control Group, the SIA-supplemented Group and the Reference Group. The testing was done while the animals were alive and at postnatal day 110 (PND110). Postnatal day 110 in rats equates to approximately 10 to 20 years of age in the lifespan of a human. Since hippocampus is a key brain structure related to LTP memory, experiments were done in order to determine the functionality of hippocampus in vivo. Long-term potentiation (LTP) is considered as the electrophysiological base of memory. In these experiments, a higher response indicates better memory potential.
The test was performed after implantation of electrodes in the hippocampal CA3-CAl areas of the rats in each group. There were seven rats per group. Each animal had 4 electrodes inserted and LTP measurements were taken from each electrode. Synaptic field potentials in the CAl area were evoked by paired (40 ms of interval) 100 µs, square, biphasic (negative-positive) pulse applied to Schaffer collaterals. For each animal, the stimulus intensity was set well below the threshold for evoking a population spike, usually 30-40% of the intensity necessary for evoking a maximum field excitatory postsynaptic potential ("fEPSP') response. An excitatory postsynaptic potential (EPSP) is a temporary depolarization of postsynaptic membrane potential caused by the flow of positively charged ions into the postsynaptic cell as a result of opening of ligand-gated ion channels.
To evoke LTP, the following high frequency stimulation (HFS) protocol was used: each animal was subjected to five 200 Hz, 100 ms trains of pulses at a rate of l/s. These trains were presented 6 times in total, at intervals of 1 minutes. After the HFS protocol, fEPSPs were recorded again for 30 minutes. Additional recordings were carried out for 15 minutes during the 3 following days.
FIG. 3 depicts the results of the Long-term Potentiation Testing. FIG. 3 illustrates the results of induction of LTP by the use of a high-frequency stimulation (HFS) protocol. Results correspond to the slope of the field excitatory postsynaptic potential ("fEPSP') evoked by a second electronic pulse (which took place 40 ms after a first pulse). Significant differences (p < 0.05) are indicated by the following signs: "*" indicates the differences between the SIA-supplemented Group and the Control Group; and "†" indicates the differences between the Reference Group and the Control Group. Average baseline fEPSP for each group was assigned the value of 100, and the rest of the fEPSP were referred to that value.

[7] = Memory Trial 48 hours post training, read from FIG. 2

Structure (SMILES) | persistence of LTP induction [1] | fEPSP values / LTP response evoked after the HFS train, in words [1] | fEPSP values / LTP response evoked after the HFS train, in words ([1]; listed as 6'SL) | time spent exploring the novel object versus the familiar object (rats [2]) | latency to blocked arm (rats [3]) | percentage of animals visiting the previously blocked arm first (rats [3]) | speed of learning (rats [4]) | visits to the correct corner versus the incorrect corner (performance) (rats [4]) | time spent in the novel arm (rats [5]; [7]) | time spent in the start arm (rats [5]; [7]) | Y-maze performance, in words (rats [5]; compared with Reference Group / non-supplemented control animals, listed as free sialic acid) | novel arm preference (percentage of animals that preferred the novel arm first) (rats [5]; Retention Trial 5 minutes post training, pups supplemented PND3 to weaning, read from FIG. 1) | persistence of LTP response ([6]; 72 hours post stimulus) | fEPSP slope after high-frequency stimulation ([6]; average baseline fEPSP assigned the value of 100, FIG. 3) | fEPSP slope forty-eight hours after high-frequency stimulation ([6]; baseline = 100, FIG. 3) | fEPSP slope seventy-two hours after high-frequency stimulation ([6]; baseline = 100, FIG. 3) | fEPSP slope twenty-four hours after high-frequency stimulation ([6]; baseline = 100, FIG. 3) | LTP response evoked by the stimulus, in words [6] | LTP response evoked by the stimulus, in words ([6]; listed as free sialic acid) | time spent exploring the novel object versus the familiar object (rats [2]; listed as NeuAc)
CC(=O)NC1C(O)CC(OCC2OC(OC3C(CO)OC(O)C(O)C3O)C(O)C(O)C2O)(C(=O)O)OC1C(O)C(O)CO (stereo not shown) [6'-SL, 6'-sialyllactose] | remaining; also recorded: remained at elevated levels even 4 days post stimulus | significantly larger | strongest response; also recorded: significantly higher LTP response levels than those of the control group | significantly more time visiting the novel object than the familiar one; also recorded: distinguish better between the familiar and novel object | lower values of latency to the blocked arm in comparison with Control group | significantly higher than that of the control animals | seemed to learn faster than the Control group | performed better compared to the Control group | – | – | – | – | – | – | – | – | – | – | – | –
CC(=O)N[C@H]1[C@H]([C@H](O)[C@H](O)CO)OC(O)(C(=O)O)C[C@@H]1O (stereo partly shown) [SIA, N-Acetylneuraminic acid] | remaining | – | – | – | lower values of latency to the blocked arm in comparison with Control group | significantly higher than that of the control animals | seemed to learn faster than the Control group | performed better compared to the Control group | about 65 seconds | about 40 seconds | performed better and similarly to reference animals | about 57% | remained at high levels | about 220 | ~160 | ~140 | about 205 | strongest response | significantly higher LTP response levels than those of the control group | significantly more time visiting the novel object than the familiar one; also recorded: distinguish better between the familiar and novel object

Reference: patent publication EP2880993A1, “Method of achieving memory and learning improvement by the administration of sialic acid” (ABBOTT LABORATORIES, priority 2013, dated 2015)
